Values after ≈ are worked out from the molar mass of the structure shown. Read-outs that look alike come from different tables or passages of the source.
Key:
PC12 mHTTQ103 cells = assay: Rescue of PC12 cells from mHTTQ103-induced cell death; type: cell-based, rat; settings: for EC50: Rattus norvegicus, PC-12
[1] = target: T1, human catalytic PDI A1 a domain (PDIa) (Homo sapiens, UniProt P07237); assay: Isothermal titration calorimetry (ITC) binding to PDIa
T1 construct: made in house; host or cells: Escherichia coli BL21-Gold (DE3)
T1 sequence (P07237 18-134): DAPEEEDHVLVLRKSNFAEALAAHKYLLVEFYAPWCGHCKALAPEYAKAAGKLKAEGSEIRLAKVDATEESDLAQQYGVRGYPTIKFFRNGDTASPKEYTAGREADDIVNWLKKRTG
Method: All ITC experiments were carried out at 25° C. on MicoCal Auto-ITC200 system (GE Healthcare). […] ITC titration experiments were carried out at 25° C. with 19 injections, 2 μl per injection, and 180 seconds between each injection. The reference cell power was set to 5 μcal/sec. A control experiment was performed for each compound, where each compound was titrated into buffer to account for heat released due to dilution. This background was subtracted from test data before a final dissociation constant was obtained. […] Gibbs free energy, ΔG, was calculated from equation ΔG=ΔH-TΔS. All other parameters, Ka, n, ΔH, ΔS, were determined directly from the titration data.
LOC14 analogs were designed and synthesized as described in the synthetic schemes. The analogs were evaluated for their binding to PDIa using isothermal titration calorimetry (ITC) (results of certain compounds are shown in FIGS. 1A-1E). Next, the analogs were tested for their ability to rescue PC12 cells from mHTT^Q103 induced cell death in a dose-dependent manner (results of certain compounds are shown in FIG. 2).

[2] = Solubility (stock solvent)
[3] = Tables 5-13, PC12 cells, read-out: EC50
[4] = rescue from mHTTQ103 induced cell death
[5] = Tables 5-13, solvent not given (DMSO in Table 1)
[6] = rescue from mHTTQ103 induced cell death, read-out: PC12 cells EC50
[7] = Tables 5-13, NA = not active, read-out: Kd
[8] = N/A = not active, read-out: ITC KD

| Compound | ITC KD ([1]; N/A = not active) | Solubility [2] | Solubility [2, 5] | Kd [1, 7] | Kd [1, 8] | Kd ([1]; two-site binding, first site, read-out: ITC KD1) | Kd ([1]; two-site binding, second site, read-out: ITC KD2) | EC50 (PC12 mHTTQ103 cells; [3]) | Max Viability (%) (PC12 mHTTQ103 cells; Tables 5-13, PC12 cells) | PC12 cells Max % Viability (PC12 mHTTQ103 cells; [4]) | EC50 (PC12 mHTTQ103 cells; [6]) | PC12 cells EC50 (PC12 mHTTQ103 cells; [4]) | Solubility ([2]; in water) |
| --- | --- | --- | --- | --- | --- | --- | --- | --- | --- | --- | --- | --- | --- |
| C[C@@H](NC(=O)c1ccccc1S)c1ccccc1 [LC-28] | KD = N/A irreversible or not active | 100 mM in DMSO | 100 mM (≈ 25.7 mg/mL) | – | – | – | – | 808 nM | 56% | 55.52% | – | – | – |
| NC(=O)c1cccc(C(F)(F)F)c1SSc1c(C(N)=O)cccc1C(F)(F)F [LC-45] | KD = N/A irreversible or not active | 100 mM in DMSO | – | – | – | – | – | – | – | 16.98% | – | Not Active | – |
| Cc1ccc2s[nH]c(=O)c2c1 [LC-61, 5-Methylbenzo[d]isothiazol-3(2H)-one] | – | 100 mM in DMSO | 100 mM (≈ 16.5 mg/mL) | 267 nM | 267 nM | – | – | 591 nM | 65% | 64.68% | 591 nM | – | – |
| Cn1sccc1=O [LC-35] | KD = N/A irreversible or not acitve | – | 100 mM (≈ 11.5 mg/mL) | – | – | – | – | – | 15% | 14.63% | – | Not Active | 100 mM in water |
| C[C@H](c1ccccc1)n1sc2ccccc2c1=O [LC-29] | – | 100 mM in DMSO | 100 mM (≈ 25.5 mg/mL) | 658 nM | – | – | – | 669 nM | 42% | 42.02% | 669 nM | – | – |
| O=c1c2ccccc2sn1-c1ccc(Oc2ccccc2)cc1 [LC-37] | KD = N/A irreversible or not active | 100 mM in DMSO | 100 mM (≈ 31.9 mg/mL) | – | – | – | – | 1680 nM | 22% | 21.77% | – | – | – |
| CC(C)(C)OC(=O)N1CCN(Cn2sc3ccccc3c2=O)CC1 [LC-10] | – | 100 mM in DMSO | 100 mM (≈ 34.9 mg/mL) | 123 ± 34 nM | – | – | – | 581 nM | 72% | 71.82% | 561 nM | – | – |
| O=c1c2ccccc2sn1CN1CCOCC1 [LC-18] | – | 100 mM in DMSO | 100 mM (≈ 25 mg/mL) | 253 nM | – | – | – | 547 nM | 69% | 69.00% | – | – | – |
| O=c1ssc2ccccc12 [LC-48] | KD = N/A irreversible or not active | 100 mM in DMSO | 100 mM (≈ 16.8 mg/mL) | – | – | – | – | – | 8% | 8.14% | – | Not Active | – |
| O=c1c2ccccc2sn1CN1CCC(CO)CC1 [LC-4] | – | 100 mM in DMSO | 100 mM (≈ 27.8 mg/mL) | 265 nM | – | – | – | 343 nM | 60% | 60.18% | 342 nM | – | – |
| O=c1c2ccccc2sn1CN1CCN(Cc2ccccc2)CC1 [LC-22] | – | 100 mM in DMSO | 100 mM (≈ 33.9 mg/mL) | 173 ± 32 nM | – | – | – | 310 nM | 62% | 61.51% | – | – | – |
| O=c1c2ccccc2sn1CN1CCCCC1 [LC-1] | – | 100 mM in DMSO | 100 mM (≈ 24.8 mg/mL) | 107 nM | – | – | – | 459 nM | 67% | 66.57% | – | – | – |

More lines, main results first:

| ITC KD ([1]; N/A = not active) | Solubility [2] | Solubility [2, 5] | Kd [1, 7] | Kd [1, 8] | Kd ([1]; two-site binding, first site, read-out: ITC KD1) | Kd ([1]; two-site binding, second site, read-out: ITC KD2) | Compound | EC50 (PC12 mHTTQ103 cells; [3]) | Max Viability (%) (PC12 mHTTQ103 cells; Tables 5-13, PC12 cells) | PC12 cells Max % Viability (PC12 mHTTQ103 cells; [4]) | EC50 (PC12 mHTTQ103 cells; [6]) | PC12 cells EC50 (PC12 mHTTQ103 cells; [4]) | Solubility ([2]; in water) |
| --- | --- | --- | --- | --- | --- | --- | --- | --- | --- | --- | --- | --- | --- |
| KD = N/A irreversible or not active | 100 mM in DMSO | 100 mM (≈ 31.4 mg/mL) | – | – | – | – | O=C(Nc1ccc(N2CCOCC2)cc1)c1ccccc1S [LC-21] | 696 nM | 32% | 31.98% | – | – | – |
| – | 15 mM in DMSO | 15 mM (≈ 5.28 mg/mL) | 114 nM | – | – | – | O=C(C1CC1)N1CCN(Cn2sc3ccc(Cl)cc3c2=O)CC1 [LC-15] | 487 nM | 57% | 56.92% | 487 nM | – | – |
| – | 100 mM in DMSO | 100 mM (≈ 25.6 mg/mL) | 0.3 nM | 0.3 nM | – | – | C[C@H](c1ccccc1)n1sc2ncccc2c1=O [LC-58, (R)-2-(1-phenylethyl)isothiazolo[5,4-b]pyridin-3(2H)-one] | – | 14% | 13.62% | – | Not Active | – |
| – | 100 mM in DMSO | 100 mM (≈ 26.5 mg/mL) | 20 nM | 20.1 nM | – | – | O=c1c2cccnc2sn1CCN1CCOCC1 [LC-55] | – | 13% | 13.20% | – | Not Active | – |
| – | 100 mM in DMSO | 100 mM (≈ 20.9 mg/mL) | 158 nM | – | – | – | COCCn1sc2ccccc2c1=O [LC-32] | 700 nM | 42% | 41.96% | – | – | – |
| – | 100 mM in DMSO | 100 mM (≈ 18.1 mg/mL) | 18 nM | 17.5 nM | – | – | Cc1nnc2s[nH]c(=O)c2c1C [LC-57, 4,5-dimethylisothiazolo[5,4-c]pyridazin-3(2H)-one] | 12200 nM | 54% | 54.15% | – | – | – |
| Not active or irreversible | 100 mM in DMSO | – | – | – | – | – | O=c1c2ccccc2on1Cc1ccccc1 [LC-67, 2-benzylbenzo[d]isoxazol-3(2H)-one] | – | – | 8.05% | – | not active | – |
| KD = N/A irreversible or not active | 30 mM in DMSO | 30 mM (≈ 8.11 mg/mL) | – | – | – | – | O=C(Nc1ccccc1)n1sc2ccccc2c1=O [LC-6] | 476 nM | 66% | 66.47% | – | – | – |
| KD = N/A irreversible or not active | 100 mM in DMSO | 100 mM (≈ 24.5 mg/mL) | – | – | – | – | O=c1c2ccccc2sn1-c1cccc(F)c1 [LC-31] | 1760 nM | 36% | 36.24% | – | – | – |
| – | 100 mM in DMSO | – | – | – | 30.7 nM | 14400 nM | C#CCn1sc2ccccc2c1=O [LC-66, 2-(prop-2-yn-1-yl)benzo[d]isothiazol-3(2H)-one] | – | – | 40.34% | 763 nM | – | – |
| – | 100 mM in DMSO | 100 mM (≈ 36.7 mg/mL) | 190 ± 27 nM | – | – | – | CC(=O)c1ccc(N2CCN(Cn3sc4ccccc4c3=O)CC2)cc1 [LC-13] | 514 nM | 63% | 63.14% | – | – | – |
| KD = N/A irreversible or not active | 100 mM in DMSO | 100 mM (≈ 18.6 mg/mL) | – | – | – | – | O=c1[nH]sc2c(Cl)cccc12 [LC-38] | – | 8% | 7.63% | – | Not Active | – |
| KD = N/A irreversible or not active | 100 mM in DMSO | 100 mM (≈ 18.4 mg/mL) | – | – | – | – | S=c1ssc2ccccc12 [LC-49] | – | 9% | 8.75% | – | Not Active | – |
| KD = N/A irreversible or not active | 100 mM in DMSO | 100 mM (≈ 38.5 mg/mL) | – | – | – | – | O=C(C1CC1)N1CCN(Cn2sc3c(C(F)(F)F)cccc3c2=O)CC1 [LC-42] | – | 8% | 8.17% | – | Not Active | – |
